Publication PMC5796017, “Enantiomeric Effect of D-Amino Acid Substitution on the Mechanism of Action of α-Helical Membrane-Active Peptides” (International Journal of Molecular Sciences, 2017)
Values after ≈ are worked out from the molar mass of the structure shown.

What was measured:
S. aureus ATCC25923 = assay: Antimicrobial activity, microtiter dilution MIC; format: cell-based, Staphylococcus aureus; settings: G+; MH medium, 5 × 10^5 CFU/mL, 37 °C, 24 h, triplicate
How it was run: (§1)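 Broth microdilution in Mueller–Hinton medium, inoculum 5 × 10^5 CFU/mL, serially diluted peptide, 24 h at 37 °C. MIC taken as lowest peptide concentration preventing growth; triplicate runs.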

S. epidermidis ATCC12228 = assay: Antimicrobial activity, microtiter dilution MIC; format: cell-based, Staphylococcus epidermidis; settings: G+; MH medium, 5 × 10^5 CFU/mL, 37 °C, 24 h, triplicate
How it was run: as §1

P. aeruginosa ATCC27853 = assay: Antimicrobial activity, microtiter dilution MIC; format: cell-based, Pseudomonas aeruginosa; settings: G−; MH medium, 5 × 10^5 CFU/mL, 37 °C, 24 h, triplicate
How it was run: as §1

[1] = Circular dichroism (CD) secondary structure; format: physicochemical
How it was run: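 Peptide secondary structure was measured by circular dichroism on a Jasco J-810 CD spectrometer at 25 °C, in benign KP buffer to mimic a hydrophilic environment and in 50% 2,2,2-trifluoroethanol (benign buffer: TFE = 1:1, vol/vol) to mimic a membrane-like hydrophobic environment. Mean residue molar ellipticity at 222 nm, [θ]222 (degree·cm^2·dmol^−1), calculated as [θ] = θ/10lCMn, gave relative helical content.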

HeLa cells = assay: AFM imaging; format: cell-based, human; settings: treatment 5 min, DMEM, AAC mode
Description: (§2) The mechanism of the interaction of the peptides with the different kinds of membranes was further analyzed by AFM. E. coli and HeLa cells were imaged to observe the morphologic change of cell membranes with, and without, treatment with V13K. […] Similarly, the surface of untreated cells fixed with, or without, 4% paraformaldehyde were intact and the membrane surface appeared quite smooth (Figure 4E–H).
(§3) The AFM imaging of E. coli ATCC25922 and HeLa cells before, and after, incubation with V13K were performed using an AFM 5500 (Agilent Technologies, Chandler, AZ, USA). The AFM imaging of E. coli was used on the contact mode and the cantilever was used as the B-tip (DNP, B-tip, Bruker AFM probes, California, CA, USA). The AFM imaging of HeLa was used on the AAC mode and the cantilever was used as the D-tip (DNP, D-tip, Bruker AFM probes, Camarillo, California, CA, USA). A single bacterial colony was picked and cultured in Mueller–Hinton (MH) medium for 18–20 h. […] The E. coli and peptide-treated bacteria samples (after treatment for 30 min) were applied onto mica and imaged in air using the contact mode and recorded with 512 × 512 pixels. The images of HeLa cells and peptide-treated HeLa cells (after treatment for 5 min) were obtained in Dulbecco’s Modified Eagle’s medium (DMEM) using the Acoustic AC (AAC) mode and recorded with 512 × 512 pixels. […]

E. coli ATCC25922 [2] = assay: Antimicrobial activity, microtiter dilution MIC; format: cell-based, Escherichia coli; settings: G−; MH medium, 5 × 10^5 CFU/mL, 37 °C, 24 h, triplicate
How it was run: as §1

MIA PaCa-2 = assay: MTT cell viability assay; format: cell-based, human; settings: MIA PaCa-2, MTT, 24 h; mean ± SEM of three independent determinations
How it was run: (§4)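 Cells seeded at 5000 per well in DMEM/10% FBS, exposed to peptides for 24 h at 37 °C. Viability by MTT, formazan dissolved in DMSO, absorbance at 492 nm. IC50 is the concentration giving 50% viability loss; triplicate.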

HeLa = assay: MTT cell viability assay; format: cell-based, human; settings: 24 h, mean ± SEM of three independent determinations
How it was run: as §4

HPAC = assay: MTT cell viability assay; format: cell-based, human; settings: 24 h, mean ± SEM of three independent determinations
How it was run: as §4

BxPC-3 = assay: MTT cell viability assay; format: cell-based, human; settings: BxPC-3, MTT, 24 h; mean ± SEM of three independent determinations
How it was run: as §4

E. coli ATCC25922 [3] = assay: AFM imaging; format: cell-based, Escherichia coli; settings: treatment 30 min, imaged in air, contact mode
Description: as §2, §3

CC[C@H](C)[C@H](NC(=O)[C@H](C)NC(=O)[C@H](CCCCN)NC(=O)[C@H](CC(C)C)NC(=O)[C@H](C)NC(=O)[C@@H](NC(=O)[C@H](Cc1cnc[nH]1)NC(=O)[C@H](CC(C)C)NC(=O)[C@@H](NC(=O)[C@@H](NC(=O)[C@H](CCCCN)NC(=O)[C@H](CCCCN)NC(=O)[C@H](C)NC(=O)[C@H](CO)NC(=O)[C@H](CCCCN)NC(=O)[C@H](Cc1ccccc1)NC(=O)[C@@H](NC(=O)[C@H](CCCCN)NC(=O)[C@H](CC(C)C)NC(=O)[C@H](Cc1ccccc1)NC(=O)[C@H](CO)NC(=O)[C@H](CCCCN)NC(=O)[C@H](Cc1c[nH]c2ccccc12)NC(=O)[C@H](CCCCN)NC(C)=O)[C@@H](C)O)[C@@H](C)O)C(C)C)[C@@H](C)O)C(=O)N[C@@H](CO)C(=O)N[C@@H](CO)C(N)=O [Peptide V13K]
MIC (S. aureus ATCC25923): 32 µM (≈ 95.7 µg/mL) | MIC (S. epidermidis ATCC12228): 4 µM (≈ 12 µg/mL) | MIC (P. aeruginosa ATCC27853): 8 µM (≈ 23.9 µg/mL) | [θ]222, benign ([1]; CD, KP buffer (100 mM KCl, 50 mM KH2PO4/K2HPO4, pH 7.4), 75 μM peptide, 25 °C): −5617.46 degree·cm^2·dmol^−1 | [θ]222, 50% TFE ([1]; CD, KP buffer with 50% TFE, 75 μM peptide, 25 °C): −50,520.3 degree·cm^2·dmol^−1 | α-Helix (%), 50% TFE (relative helicity) ([1]; KP buffer with 50% TFE, relative to molar ellipticity of V13K in 50% TFE): 100% | α-Helix (%), benign ([1]; KP buffer, relative to molar ellipticity of V13K in 50% TFE): 11.1% | Morphology of HeLa cell membrane by AFM (HeLa cells): pores and cavities were visible on the surface of the cells | MIC (E. coli ATCC25922 [2]): 8 µM (≈ 23.9 µg/mL) | IC50 (MIA PaCa-2): 24.8 ± 0.6 µM | IC50 (HeLa): 16 ± 0.5 µM | IC50 (HPAC): 7.6 ± 4 µM | IC50 (BxPC-3): 12.5 ± 1.2 µM | Morphology of bacterial membrane by AFM (E. coli ATCC25922 [3]): obvious damage to the morphology of bacterial membrane
